In ChEMBL document CHEMBL1144055, “Mathemycin B, a new antifungal macrolactone from actinomycete species HIL Y-8620959” (1999):

How the values were obtained:
Format in all cases: functional
Fusarium culmorum = assay: Antimicrobial activity against Fusarium culmorum assessed as drug concentration required to form 10 mm zone of inhibition by agar diffusion method
[1] = Antimicrobial activity against Pellicularia sasakii JO3 assessed as drug concentration required to form 10 mm zone of inhibition by agar diffusion method
Alternaria mali = assay: Antimicrobial activity against Alternaria mali P37 assessed as drug concentration required to form 10 mm zone of inhibition by agar diffusion method
Botrytis cinerea [2] = assay: Antimicrobial activity against Botrytis cinerea A06 assessed as drug concentration required to form 10 mm zone of inhibition by agar diffusion method
Parastagonospora nodorum = assay: Antimicrobial activity against Leptosphaeria nodorum JO2 assessed as drug concentration required to form 10 mm zone of inhibition by agar diffusion method
Oculimacula yallundae = assay: Antimicrobial activity against Pseudocercosporella herpotrichoides 008 assessed as drug concentration required to form 10 mm zone of inhibition by agar diffusion method
Botrytis cinerea [3] = assay: Antimicrobial activity against Botrytis cinerea DO1 assessed as drug concentration required to form 10 mm zone of inhibition by agar diffusion method
Phytophthora infestans = assay: Antimicrobial activity against Phytophthora infestans JO8 assessed as drug concentration required to form 10 mm zone of inhibition by agar diffusion method

Compound | MAC (Fusarium culmorum) | MAC [1] | MAC (Alternaria mali) | MAC (Botrytis cinerea [2]) | MAC (Parastagonospora nodorum) | MAC (Oculimacula yallundae) | MAC (Botrytis cinerea [3]) | MAC (Phytophthora infestans)
C/C1=C\C(C)C(O)/C(C)=C/C(O[C@H]2O[C@H](CO)[C@@H](O)[C@H](O[C@@H]3O[C@H](CO)[C@@H](O)[C@H](O)[C@@H]3O)[C@@H]2O)C(O)C(C)C(O)CC(O)CC(O)C(C)C(O)CC(O)CC(O)C(C)C(O)CC(O)CC(O[C@@H]2O[C@H](C)[C@@H](O)[C@H](N)[C@H]2O)C(C)C(C(C)CC(C)CCCCCCN)OC(=O)CCC(C)C(O)CC/C=C/C(C)C1O (some centres undefined) [MATHEMYCIN B] | 62.5 mg/L | 62.5 mg/L | 62.5 mg/L | 62.5 mg/L | 125 mg/L | 250 mg/L | 62.5 mg/L | 
MANCOZEB |  |  |  |  |  |  |  | 62.5 mg/L
maneb |  |  |  |  |  | 125 mg/L |  | 
